Assay results from patent US9976141B2, “Compositions and methods for inhibiting gene expression of Hif2alpha” (Arrowhead Madison Inc., priority 2015, dated 2018).
pEC50: −log10 of the molar value. Strand notation (5' to 3'): a small letter for the sugar, then the base; units joined by * are phosphorothioate-linked, units joined directly phosphodiester-linked; [ ] holds rarer units or linkages, { } end groups; capitals alone tell only the bases. [UNA-N] = unlocked nucleic acid (N: the base); [invdT] = inverted (3'-3') thymidine; d = 2'-deoxy (DNA); m = 2'-O-methyl; f = 2'-fluoro

What was measured:
[1] = system: human EPAS1 (Hif2α) cDNA in psiCHECK2 (Renilla luciferase/EPAS1 fusion mRNA) in Hep3B cells; assay: Hif2α RNAi trigger EC50 determination, dual-luciferase reporter assay; type: cell-based; conditions: UNA modified at site 6 or 7, EPAS1-psiCHECK2, same conditions, read-out: EC50 UNAs EC50
Text: Candidate sequences were identified by in silico analysis and screened as chemically modified canonical siRNAs in vitro. For screening purposes, the human EPAS1 (Hif2α) cDNA sequence (accession #NM 001430) was synthesized and cloned (DNA 2.0, Menlo Park, Calif.) into a commercially-available reporter-based screening plasmid, psiCHECK2 (Promega, Madison, Wis.) which generated a Renilla luciferase/EPAS1 fusion mRNA. For RNAi trigger efficacy evaluation, Hep3B cells, a human hepatocellular carcinoma line, were plated at 10,000 cells per well in 96-well format. Each of the 187 EPAS1 RNAi triggers, in two subsets, was co-transfected at two concentrations, 1 nM and 0.1 nM, with 25 ng EPAS1-psiCHECK2 plasmid DNA per well and 0.2 μL LipoFectamine 2000 (Life Technologies) per well. Gene knockdown was determined by measuring Renilla luciferase levels normalized to the levels of constitutively-expressed firefly luciferase, also present on the psiCHECK-2 plasmid, using the Dual Luciferase Reporter Assay (Promega, Madison, Wis.) Table 5.
The eight best canonical sequences were further evaluated by determining the EC50 concentration. Each trigger was assessed for knockdown under the same conditions and assays as above, but at 10 different concentrations ranging from 0.00051 nM to 10 nM. EC50 were determined using GraphPad Prism software. Each of the top five canonical sequences were modified to contain UNA at sites 6 and 7. These triggers, along with their parent canonical sequences, were evaluated side-by-side for EC50 concentration determination using the same conditions and assays as above, Table 6.

[2] = system: human (tumor) Hif2α (EPAS1) mRNA; assay: Hif2α knockdown in orthotopic RCC tumor bearing mice, single injection of RNAi trigger-delivery polymer conjugate, RT-qPCR (Table 7); type: in vivo; conditions: RNAi trigger 80 μg, polymer 126 400 μg; single tail vein injection; relative to isotonic glucose
Method in brief: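 Female athymic nude mice carried orthotopic A498-SEAP ccRCC kidney tumours, used 5–6 weeks after implantation. They received one tail-vein injection of RGD-targeted Hif2α RNAi trigger–polymer conjugate or isotonic glucose. Tumour Hif2α mRNA was measured by TaqMan RT-qPCR normalised to CycA (ΔΔCT) and expressed relative to glucose-treated mice.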

[3] = system: human (tumor) Hif2α (EPAS1) mRNA; assay: Hif2α expression in RCC tumor bearing mice after single injection of RGD targeted conjugates, 72 h, RT-qPCR (Table 11); type: in vivo; conditions: trigger 80 μg, polymer 126 280 μg
Method: Female athymic nude mice were anesthetized with ˜3% isoflourane and placed in the right lateral decubitus position. A small, 0.5-1 cm, longitudinally abdominal incision in the left flank was made. Using a moist cotton swab, the left kidney was lifted out of the peritoneum and gently stabilized. Just before injection, a 1.0 ml syringe was filled with the cell/Matrigel mixture and a 27 gauge needle catheter was attached to the syringe tip. The filled syringe was then attached to a syringe pump (Harvard Apparatus, model PHD2000) and primed to remove air. The tip of a 27-gauge needle catheter attached to a syringe was inserted just below the renal capsule near the caudal pole and the tip of the needle was then carefully advanced cranially along the capsule 3-4 mm. A 10 μl aliquot of 2:1 (vol:vol) cell/matrigel mixture containing about 300,000 cells was slowly injected into the kidney parenchyma using a syringe pump. The needle was left in the kidney for 15-20 seconds to ensure the injection was complete. The needle was then removed from the kidney and a cotton swab was placed over the injection site for 30 seconds to prevent leakage of the cells or bleeding. The kidney was then gently placed back into the abdomen and the abdominal wall was closed. Serum was collected every 7-14 days after implantation to monitor tumor growth using a commercial SEAP assay kit. For most studies, tumor mice were used 5-6 weeks after implantation, when tumor measurements were typically around 4-8 mm.
In preparation for quantitative PCR, total RNA was isolated from tissue samples homogenized in TriReagent (Molecular Research Center, Cincinnati, Ohio) following the manufacturer's protocol. Approximately 500 ng RNA was reverse-transcribed using the High Capacity cDNA Reverse Transcription Kit (Life Technologies). For human (tumor) Hif2α (EPAS1) expression, pre-manufactured TaqMan gene expression assays for human Hif2α (Catalog #4331182) and CycA (PPIA) Catalog #: 4326316E) were used in biplex reactions in triplicate using TaqMan Gene Expression Master Mix (Life Technologies) or VeriQuest Probe Master Mix (Affymetrix). For human (tumor) VegFa (VEGFA) expression, pre-manufactured TaqMan gene expression assays for human VegFa (Catalog #4331182, Assay ID: Hs00900055) and CycA (Part#: 4326316E) were used in biplex reactions in triplicate using TaqMan Gene Expression Master Mix (Life Technologies) or VeriQuest Probe Master Mix (Affymetrix). Quantitative PCR was performed by using a 7500 Fast or StepOnePlus Real-Time PCR system (Life Technologies). The ΔΔCT method was used to calculate relative gene expression.
RGD targeted HiF2α-RNAi trigger delivery polymer conjugates were formed using polymer 126, 100A, or 006. The RNAi trigger, μg indicates the quantity of trigger reacted with polymer. The polymer was modified with the indicated RGD mimic and PEG modifying agents as described above. Kidney RCC tumor-bearing mice were generated as described and treated with a single tail vein injection of isotonic glucose (G1) or the indicated Hif2α RNAi trigger-delivery polymer conjugate. Mice were euthanized 72 h (day 4) after injection and total RNA was prepared from kidney tumor using Trizol reagent following manufacturer's recommendation. Relative HiF2α mRNA levels were determined by RT-qPCR as described and compared to mice treated with delivery buffer (isotonic glucose) only (Table 11).

[4] = system: human (tumor) Hif2α (EPAS1) mRNA; assay: HiF2α RNAi trigger/sunitinib combination study: HiF2α expression in RCC tumors (Table 10A); type: in vivo; conditions: 4 doses, 3 cycles
Method: Female athymic nude mice were anesthetized with ˜3% isoflourane and placed in the right lateral decubitus position. A small, 0.5-1 cm, longitudinally abdominal incision in the left flank was made. Using a moist cotton swab, the left kidney was lifted out of the peritoneum and gently stabilized. Just before injection, a 1.0 ml syringe was filled with the cell/Matrigel mixture and a 27 gauge needle catheter was attached to the syringe tip. The filled syringe was then attached to a syringe pump (Harvard Apparatus, model PHD2000) and primed to remove air. The tip of a 27-gauge needle catheter attached to a syringe was inserted just below the renal capsule near the caudal pole and the tip of the needle was then carefully advanced cranially along the capsule 3-4 mm. […]
In preparation for quantitative PCR, total RNA was isolated from tissue samples homogenized in TriReagent (Molecular Research Center, Cincinnati, Ohio) following the manufacturer's protocol. […] Quantitative PCR was performed by using a 7500 Fast or StepOnePlus Real-Time PCR system (Life Technologies). […]
(§1) Tumor growth rates were evaluated by serum SEAP collected at 5-7 days interval during treatment. Tumor weight and volume was determined at necropsy. Gross tumor morphology and H&E histopathology were evaluated.

[5] = system: A498-SEAP ccRCC orthotopic kidney tumor; assay: HiF2α RNAi trigger/sunitinib combination study: tumor size and SEAP expression (Table 10B); type: in vivo, mice; conditions: trigger = Duplex AD1884 with polymer 064 (125 μg polymer) iv every 4 weeks, 4 doses, sunitinib oral gavage, 3 cycles
Method: HiF2α RNAi trigger-delivery polymer conjugate (125 μg polymer) was prepared using protocol 7 Duplex ID No. AD1884 and polymer 064. HiF2α RNAi trigger-delivery polymer conjugate was dosed every 4 weeks by iv injection, 4 doses total. Sunitinib (Malate salt) obtained from LC laboratories was suspended in Ora-plus/Ora sweet (50:50, vol:vol). […]
as §1

Compound	pEC50 [1]	other results
AD00988: Hif2α RNAi trigger, XD-02335 sequence modified to contain UNA at site 6 (antisense dTfGmUfAmA[UNA-A]mAfCmAfAmUfUmGfUmGfUmAfCmUdT*dT; sense fAmGfUmAfCmAfCmAfAmUfUmGfUmUfUmUfAmCfA[invdT])	9.08	–
AD01031: Hif2α RNAi trigger duplex used in the multi-dose conjugate of Example 15 (antisense TUUCAUGAAAUCGUUACGUTT; sense ACGUAACGAUUUCAUGAAAT; Hif2alpha RNAi agent antisense strand; modified_base 2,4,6,8,10,12,14,16,18 /mod_base = “2′-deoxy-2′-fluoro corresponding nucleoside”; modified_base 3,5,7,9,11,13,15,17,19 /mod_base = “2′-O-methyl corresponding nucleoside”; modified_base 21 /mod_base = “5′-phosphorothioate corresponding nucleotide”; Hif2alpha RNAi agent sense strand; modified_base 1,3,5,7,9,11,13,15,17,19 /mod_base = “2′-deoxy-2′-fluoro corresponding nucleoside”; modified_base 2,4,6,8,10,12,14,16,18 /mod_base = “2′-O-methyl corresponding nucleoside”; modified_base 20 /mod_base = “3′-3′-linked nucleotide”; modified_base 1 /mo)	–	Relative Expression day 4 (Hif2α mRNA in kidney tumor) [2]: 0.20; Relative Expression day 4 (Hif2α) ([3]; RGD-PEG8-ACit-PABC-PNP 0.4×, PEG6-ACit-PABC-PNP): 0.311; Relative Expression day 4 (Hif2α) ([3]; RGD-PEG8-HyNic 0.5×, PEG12-ACit-PABC-PNP): 0.300
AD00995: Hif2α RNAi trigger, XD-02404 sequence modified to contain UNA at site 7 (antisense dTfAmAfAmUfC[UNA-G]fUmUfAmCfGmUfUmGfAmCfAmGdT*dT; sense dTfGmAfGmGfAmGfCmUfUmGfUmGfUmGfUmUfCmGdT*dT)	9.77	–
CCN(CC)CCNC(=O)c1c(C)[nH]c(/C=C2\C(=O)Nc3ccc(F)cc32)c1C [sunitinib, Sunitinib]	–	Relative HiF2α expression levels decreased ([4]; DPC 125 μg polymer iv every 4 weeks, sunitinib oral gavage 5 days/week 2 weeks on, 2 weeks off): 11.4%; HiF2α expression, Relative expression ([4]; trigger = Duplex AD1884 with polymer 064 (125 μg polymer) iv every 4 weeks, sunitinib oral gavage 5 days/week, 2 weeks on/2 off): 0.886; Tumor volume ([5]; at necropsy): 2113.5 ± 368 mm3; Tumor weight ([5]; at necropsy): 2385.7 ± 845 mg; Fold increase in SEAP ([5]; serum SEAP, overall): 18.1 ± 9.8
AD00993: Hif2α RNAi trigger, XD-02335 sequence modified to contain UNA at site 7 (antisense dTfGmUfAmAfA[UNA-A]fCmAfAmUfUmGfUmGfUmAfCmUdT*dT; sense fAmGfUmAfCmAfCmAfAmUfUmGfUmUfUmUfAmCfA[invdT])	9.26	–
AD00992: Hif2α RNAi trigger, XD-02415 sequence modified to contain UNA at site 6 (antisense dTfAmAfGmU[UNA-U]mAfAmGfCmUfCmCfCmAfUmAfCmAdT*dT; sense fUmGfUmAfUmGfGmGfAmGfCmUfUmAfAmCfUmUfA[invdT])	9.85	–
AD00994: Hif2α RNAi trigger, XD-02371 sequence modified to contain UNA at site 7 (antisense dTfCmUfAmGfC[UNA-A]fAmCfAmAfAmAfCmCfUmUfAmAdT*dT; sense fUmUfAmAfGmGfUmUfUmUfGmUfUmGfCmUfAmGfA[invdT])	10.09	–
AD00990: Hif2α RNAi trigger, XD-02404 sequence modified to contain UNA at site 6 (antisense dTfAmAfAmU[UNA-C]mGfUmUfAmCfGmUfUmGfAmCfAmGdT*dT; sense dTfGmAfGmGfAmGfCmUfUmGfUmGfUmGfUmUfCmGdT*dT)	9.81	–
AD00991: Hif2α RNAi trigger, XD-02407 sequence modified to contain UNA at site 6 (antisense dTfUmUfCmA[UNA-U]mGfAmAfAmUfCmGfUmUfAmCfGmUdT*dT; sense fAmCfGmUfAmAfCmGfAmUfUmUfCmAfUmGfAmAfA[invdT])	9.46	–
AD00989: Hif2α RNAi trigger, XD-02371 sequence modified to contain UNA at site 6 (antisense dTfCmUfAmG[UNA-C]mAfAmCfAmAfAmAfCmCfUmUfAmAdT*dT; sense fUmUfAmAfGmGfUmUfUmUfGmUfUmGfCmUfAmGfA[invdT])	9.43	–
AD00997: Hif2α RNAi trigger, XD-02415 sequence modified to contain UNA at site 7 (antisense dTfAmAfGmUfU[UNA-A]fAmGfCmUfCmCfCmAfUmAfCmAdT*dT; sense fUmGfUmAfUmGfGmGfAmGfCmUfUmAfAmCfUmUfA[invdT])	9.74	–
AD00996: Hif2α RNAi trigger, XD-02407 sequence modified to contain UNA at site 7 (antisense dTfUmUfCmAfU[UNA-G]fAmAfAmUfCmGfUmUfAmCfGmUdT*dT; sense fAmCfGmUfAmAfCmGfAmUfUmUfCmAfUmGfAmAfA[invdT])	9.93	–
